Laboratory results as given in US20230083012A1, “DIHYDROPYRIMIDINE DERIVATIVES AND USES THEREOF IN THE TREATMENT OF HBV INFECTION OR OF HBV-INDUCED DISEASES” (priority 2019, published 2023).

Legend:
[1] = system: HBV; assay: Anti-HBV activity in HepG2.2.15 cells (HBV DNA in culture medium by qPCR); type: cell-based; conditions: Hepatitis B virus, HepG2.2.15, 144 h, HepG2.2.15 cells, 6 days treatment, HBV DNA in culture medium quantified by real-time PCR; read-out: EC50
Outline: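 Secreted HBV DNA was measured by real-time PCR after 6-day compound exposure of HepG2.2.15 cells (2% FBS, 37 °C, re-dosed after 3 days), giving EC50 from 8-point 1:3 series starting at 10 or 1 uM. Cytotoxicity (CC50) run separately at lower cell density, top 100 uM.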

[2] = Cytotoxicity determination in HepG2.2.15 cells (CCK-8 cell viability); type: cell-based; conditions: human, 6 days treatment, CCK-8 assay, highest concentration 100 uM
Outline: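 Viability measured by CCK-8 absorbance (450 nm, 630 nm reference, 2.5 h at 37° C) after six days of treatment, medium and compound renewed on day 3. Top concentration 100 uM, eight threefold dilutions in triplicate; cells plated at 5,000/well in 2% FBS medium; CC50 derived.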

Row | Structure (SMILES) | EC50 [1] [µM] | CC50 at 6 days [2] [µM]
1 | CCOC(=O)C1=C(CN2CC(F)(F)[C@@H]3[C@H]2CON3CCC(C)(C)C(=O)O)NC(c2nccs2)=N[C@H]1c1ccc(F)c(F)c1Cl (single isomer, unassigned) [Compound 163, (cis)-4-(4-((6-(2-chloro-3,4-difluorophenyl)-5-(ethoxycarbonyl)-2-(thiazol-2-yl)-3,6-dihydropyrimidin-4-yl)methyl)-6,6-difluorohexahydro-1H-pyrrolo[3,2-c]isoxazol-1-yl)-2,2-dimethylbutanoic acid] | 0.002 | 45.6
2 | CCOC(=O)C1=C(CN2CC(F)(F)[C@@H]3[C@H]2CON3CCC(C)(C)C(=O)O)NC(c2nccs2)=N[C@@H]1c1ccc(F)c(F)c1C (single isomer, unassigned) [Compound 164, (cis)-4-(4-((6-(3,4-difluoro-2-methylphenyl)-5-(ethoxycarbonyl)-2-(thiazol-2-yl)-3,6-dihydropyrimidin-4-yl)methyl)-6,6-difluorohexahydro-1H-pyrrolo[3,2-c]isoxazol-1-yl)-2,2-dimethylbutanoic acid] | 0.003 | > 25
3 | CCOC(=O)C1=C(CN2CC(F)(F)[C@@H]3[C@H]2CON3CCC(C)(C)C(=O)O)NC(c2nc(C)cs2)=N[C@H]1c1cccc(F)c1C (single isomer, unassigned) [Compound 165, (cis)-4-(4-((5-(ethoxycarbonyl)-6-(3-fluoro-2-methylphenyl)-2-(4-methylthiazol-2-yl)-3,6-dihydropyrimidin-4-yl)methyl)-6,6-difluorohexahydro-1H-pyrrolo[3,2-c]isoxazol-1-yl)-2,2-dimethylbutanoic acid] | 0.008 | > 50
4 | CCOC(=O)C1=C(CN2CC(F)(F)[C@@H]3[C@H]2CON3CCC(C)(C)C(=O)O)NC(c2nccs2)=N[C@@H]1c1ccc(F)nc1C (single isomer, unassigned) [Compound 166, 4-((cis)-4-((5-(ethoxycarbonyl)-6-(6-fluoro-2-methylpyridin-3-yl)-2-(thiazol-2-yl)-3,6-dihydropyrimidin-4-yl)methyl)-6,6-difluorohexahydro-1H-pyrrolo[3,2-c]isoxazol-1-yl)-2,2-dimethylbutanoic acid] | 0.059 | > 100
5 | COC(=O)C1=C(CN2CC(F)(F)[C@@H]3[C@H]2CON3CCC(C)(C)C(=O)O)NC(c2nccs2)=N[C@H]1c1cccc(F)c1F (single isomer, unassigned) [Compound 167, 4-((cis)-4-((6-(2,3-difluorophenyl)-5-(methoxycarbonyl)-2-(thiazol-2-yl)-3,6-dihydropyrimidin-4-yl)methyl)-6,6-difluorohexahydro-1H-pyrrolo[3,2-c]isoxazol-1-yl)-2,2-dimethylbutanoic acid] | 0.0163 | > 100
6 | COC(=O)C1=C(CN2CC(F)(F)[C@@H]3[C@H]2CON3CCC(C)(C)C(=O)O)NC(c2nccs2)=N[C@H]1c1ccc(F)cc1Cl (single isomer, unassigned) [Compound 168, 4-((cis)-4-((6-(2-chloro-4-fluorophenyl)-5-(methoxycarbonyl)-2-(thiazol-2-yl)-3,6-dihydropyrimidin-4-yl)methyl)-6,6-difluorohexahydro-1H-pyrrolo[3,2-c]isoxazol-1-yl)-2,2-dimethylbutanoic acid] | 0.009 | > 100
7 | CCOC(=O)C1=C(CN2CC(F)(F)[C@@H]3[C@H]2CON3CCC(C)(C)C(=O)O)NC(c2nccs2)=N[C@H]1c1ccc(F)cc1Cl (single isomer, unassigned) [Compound 169, 4-((cis)-4-((6-(2-chloro-4-fluorophenyl)-5-(ethoxycarbonyl)-2-(thiazol-2-yl)-3,6-dihydropyrimidin-4-yl)methyl)-6,6-difluorohexahydro-1H-pyrrolo[3,2-c]isoxazol-1-yl)-2,2-dimethylbutanoic acid] | 0.005 | > 50
8 | COC(=O)C1=C(CN2CC(F)(F)[C@@H]3[C@H]2CON3CCC(C)(C)C(=O)O)NC(c2nccs2)=N[C@H]1c1cccc(F)c1Cl (single isomer, unassigned) [Compound 170, (cis)-4-(4-((6-(2-chloro-3-fluorophenyl)-5-(methoxycarbonyl)-2-(thiazol-2-yl)-3,6-dihydropyrimidin-4-yl)methyl)-6,6-difluorohexahydro-1H-pyrrolo[3,2-c]isoxazol-1-yl)-2,2-dimethylbutanoic acid] | 0.008 | > 25
9 | CCOC(=O)C1=C(CN2CC(F)(F)[C@@H]3[C@H]2CON3CCC(C)(C)C(=O)O)NC(c2nccs2)=NC1c1cccc(F)c1Cl (single isomer, unassigned) [Compound 171, (cis)-4-(4-((6-(2-chloro-3-fluorophenyl)-5-(ethoxycarbonyl)-2-(thiazol-2-yl)-3,6-dihydropyrimidin-4-yl)methyl)-6,6-difluorohexahydro-1H-pyrrolo[3,2-c]isoxazol-1-yl)-2,2-dimethylbutanoic acid] | 0.004 | 32.3
10 | CCOC(=O)C1=C(CN2CC(F)(F)[C@@H]3[C@H]2CON3CC(C)(C)C(=O)O)NC(c2nccs2)=N[C@@H]1c1ccc(F)nc1C (single isomer, unassigned) [Compound 172, 3-((cis)-4-((5-(Ethoxycarbonyl)-6-(6-fluoro-2-methylpyridin-3-yl)-2-(thiazol-2-yl)-3,6-dihydropyrimidin-4-yl)methyl)-6,6-difluorohexahydro-1H-pyrrolo[3,2-c]isoxazol-1-yl)-2,2-dimethylpropanoic acid] | 0.033 | > 100
11 | CCOC(=O)C1=C(CN2CC(F)(F)[C@@H]3[C@H]2CON3CCC(C)(C)C(=O)O)NC(c2nccs2)=N[C@H]1c1cccc(F)c1F (single isomer, unassigned) [Compound 173, 4-((cis)-4-((6-(2,3-difluorophenyl)-5-(ethoxycarbonyl)-2-(thiazol-2-yl)-3,6-dihydropyrimidin-4-yl)methyl)-6,6-difluorohexahydro-1H-pyrrolo[3,2-c]isoxazol-1-yl)-2,2-dimethylbutanoic acid] | 0.016 | > 100
12 | CCOC(=O)C1=C(CN2CC(F)(F)[C@@H]3[C@H]2CON3CCC(C)(C)C(=O)O)NC(c2nc(C)cs2)=N[C@H]1c1ccc(F)c(F)c1F (single isomer, unassigned) [Compound 174, 4-((cis)-4-((5-(ethoxycarbonyl)-2-(4-methylthiazol-2-yl)-6-(2,3,4-trifluorophenyl)-3,6-dihydropyrimidin-4-yl)methyl)-6,6-difluorohexahydro-1H-pyrrolo[3,2-c]isoxazol-1-yl)-2,2-dimethylbutanoic acid] | 0.015 | > 50
13 | CCOC(=O)C1=C(CN2CC(F)(F)[C@@H]3[C@H]2CON3CCC(C)(C)C(=O)O)NC(c2nccs2)=N[C@H]1c1ccc(F)c(F)c1F (single isomer, unassigned) [Compound 175, 4-((cis)-4-((5-(Ethoxycarbonyl)-2-(thiazol-2-yl)-6-(2,3,4-trifluorophenyl)-3,6-dihydropyrimidin-4-yl)methyl)-6,6-difluorohexahydro-1H-pyrrolo[3,2-c]isoxazol-1-yl)-2,2-dimethylbutanoic acid] | 0.008 | > 50
14 | CCOC(=O)C1=C(CN2CC(F)(F)[C@@H]3[C@H]2CON3CC(C)(C)C(=O)O)NC(c2nccs2)=N[C@H]1c1cccc(F)c1C (single isomer, unassigned) [Compound 176] | 0.003 | 24.8
15 | CCOC(=O)C1=C(CN2C[C@H](F)[C@H]3[C@@H]2CON3CCC(C)(C)C(=O)O)NC(c2nccs2)=N[C@H]1c1cccc(F)c1C (single isomer, unassigned) [Compound 177] | 0.015 | 24
16 | CCOC(=O)C1=C(CN2CC(F)(F)[C@@H]3[C@H]2CON3C[C@@H](CC)C(=O)O)NC(c2nccs2)=N[C@H]1c1cccc(F)c1C (single isomer, unassigned) [Compound 178A] | 0.0035 | > 50
17 | CCOC(=O)C1=C(CN2CC(F)(F)[C@@H]3[C@H]2CON3C[C@H](CC)C(=O)O)NC(c2nccs2)=N[C@H]1c1cccc(F)c1C (single isomer, unassigned) [Compound 178B] | 0.012 | > 50
18 | CCOC(=O)C1=C(CN2CC(F)(F)[C@@H]3CNC[C@@H]32)NC(c2nccs2)=N[C@H]1c1cccc(F)c1C (single isomer, unassigned) [Compound 179] | 0.05 | > 3.1
19 | CCOC(=O)C1=C(CN2CC(F)(F)[C@@H]3C(=O)N([C@@H](C)C(=O)O)C[C@@H]32)NC(c2nccs2)=N[C@H]1c1cccc(F)c1C (single isomer, unassigned) [Compound 180] | 0.0926 | > 100
20 | CCOC(=O)C1=C(CN2CC(F)(F)[C@@H]3C(=O)N(C[C@@H](C)C(=O)O)C[C@@H]32)NC(c2nccs2)=N[C@H]1c1cccc(F)c1C (single isomer, unassigned) [Compound 181A] | 0.0123 | 52.9
21 | CCOC(=O)C1=C(CN2CC(F)(F)C3C(=O)N(C[C@H](C)C(=O)O)C[C@@H]32)NC(c2nccs2)=N[C@H]1c1cccc(F)c1C (single isomer, unassigned) [Compound 181B] | 0.0095 | 69.9
22 | CCOC(=O)C1=C(CN2CC(F)(F)C3C(=O)N(C[C@@H](CC)C(=O)O)C[C@@H]32)NC(c2nccs2)=N[C@H]1c1cccc(F)c1C (single isomer, unassigned) [Compound 182A] | 0.0239 | 49.6
23 | CCOC(=O)C1=C(CN2CC(F)(F)[C@@H]3C(=O)N(C[C@H](CC)C(=O)O)C[C@@H]32)NC(c2nccs2)=N[C@H]1c1cccc(F)c1C (single isomer, unassigned) [Compound 182B] | 0.0113 | 33.3
